# Assay results from patent US20050101595A1, “N-containing cycloalkyl-substituted amino-thiazole derivatives and pharmaceutical compositions for inhibiting cell proliferation and methods for their use” (PFIZER INC., priority 2003, published 2005).
# Where a name gives a salt, the structure may show the parent alone. Read-outs that look alike come from different tables or passages of the source.
# Assays:
# [1] = target: CDK2/Cyclin A (Homo sapiens, UniProt P24941); assay: Inhibition of CDK2/Cyclin A Retinoblastoma Kinase Activity; type: biochemical; conditions: for Ki: apparent Ki, CDK2/proteolyzed cyclin A, Rb fragment substrate, 25 μM ATP; for CDK2 % Inhibition At 0.03 μM: Table 2
# In short: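 Radiometric filter-binding readout of phosphate transfer to an Rb substrate fragment by purified CDK2/truncated cyclin A at 10 or 19 nM. Run at pH 7.4 with 25 μM ATP, 30 °C, 60–75 min, linear rates; background without enzyme subtracted, Ki from competitive-inhibition models.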
# [2] = target: human CDK4 and genetically truncated (1-264) cyclin D3 (Homo sapiens, UniProt P11802); assay: Inhibition of CDK4/Cyclin D Retinoblastoma Kinase Activity; type: biochemical; conditions: for Ki: apparent Ki, CDK4/truncated cyclin D3, Rb fragment substrate, 25 μM ATP
# In short: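 Apparent Ki values come from competitive or competitive tight-binding inhibition fits of background-corrected 32P/33P incorporation into His-tagged Rb fragment (386-928), captured on nitrocellulose. Reaction: 5 nM insect-cell-expressed human CDK4 with cyclin D3 (1-264), 25 μM ATP, pH 7.4 HEPES, 2% DMSO, 30° C., 20 min, extended to 60 min for tight-binding inhibitors.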
# [3] = system: HCT-116 cell line; assay: Inhibition of cell growth, tetrazolium salt (MTT) assay; type: cell-based; conditions: for IC50: Homo sapiens, HCT-116, 120 h, MTT, three to five days, read-out: HCT-116 IC50; for HCT-116 % Inhibition at 0.25 μM: 0.25 μM compound
# In short: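 HCT-116 cells in McCoy's 5A medium received compound 4 h after plating (0.5% v/v DMSO) and were incubated three to five days at 37° C, 5% CO2. MTT (0.2 mg/mL final) then added for 4 h; DMSO-solubilized formazan read at 540 nm against 0.5% DMSO-treated controls.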
# [4] = 0.1 μM compound, HCT-116, Table 3
# [5] = 0.03 μM compound, Table 4, 0.03 µM
# human CDK4 and genetically truncated (1-264) cyclin D3, sequence (P11802 whole entry, the tested form may be a part): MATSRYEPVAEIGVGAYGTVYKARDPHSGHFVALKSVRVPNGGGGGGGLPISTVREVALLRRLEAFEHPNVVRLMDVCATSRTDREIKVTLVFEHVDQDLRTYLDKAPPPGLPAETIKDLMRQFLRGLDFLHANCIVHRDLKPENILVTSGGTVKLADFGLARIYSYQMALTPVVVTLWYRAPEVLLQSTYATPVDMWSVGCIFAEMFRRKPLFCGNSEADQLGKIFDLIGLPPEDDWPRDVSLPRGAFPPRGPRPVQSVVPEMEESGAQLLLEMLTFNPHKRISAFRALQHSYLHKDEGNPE
# human CDK4 and genetically truncated (1-264) cyclin D3, sequence (P30281 1-264 partner): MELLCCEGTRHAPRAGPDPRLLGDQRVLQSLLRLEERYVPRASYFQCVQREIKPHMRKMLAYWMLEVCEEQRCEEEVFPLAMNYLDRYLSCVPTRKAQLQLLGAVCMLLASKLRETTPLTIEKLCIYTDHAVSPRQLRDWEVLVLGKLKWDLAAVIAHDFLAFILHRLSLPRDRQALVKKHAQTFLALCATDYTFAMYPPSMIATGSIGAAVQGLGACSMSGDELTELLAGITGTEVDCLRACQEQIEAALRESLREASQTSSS
smiles,measurement,setting,value
COc1c(C(=O)N2CCC(Nc3nc(N)c(C(=O)c4c(F)cccc4F)s3)CC2)csc1Cl [Example R49],CDK2 % Inhibition at 0.03 μM,[1]; at 0.03 μM,34%
same,CDK4 % Inhibition at 0.03 μM,[2]; at 0.03 μM,55%
same,HCT-116 % Inhibition at 0.1 μM,"[3]; HCT-116 cells, at 0.1 μM",0%
same,HCT-116 5 Inhibition at 0.25 μM,[3]; HCT-116 cells,61
"CN(C)[C@@H](Cc1ccccc1)C(=O)N1CCC(Nc2nc(N)c(C(=O)c3c(F)cccc3F)s2)CC1 [Example D4, (4-[4-Amino-5-(2,6-difluoro-benzoyl)-thiazol-2-ylamino}-piperidin-1-yl)-2S-dimethylamino-phenyl-propan-1-one]",Ki,[1],2600 nM
same,Ki,[2],460 nM
same,IC50,[3]; first HCT-116 column (c4),> 5000 nM
"COc1ccc(/C=C/C(=O)N2CCC(Nc3nc(N)c(C(=O)c4c(F)cccc4F)s3)CC2)c(Cl)c1OC [Example C7, 1-{4-[4-Amino-5-(2,6-difluoro-benzoyl)-thiazol-2-ylamino]-piperidin-1-yl}-3-(2-chloro-3,4-dimethoxy-phenyl)-propenone]",Ki,[1],32 nM
same,Ki,[2],40 nM
same,IC50,[3]; first HCT-116 column (c4),600 nM
same,IC50,[3]; second HCT-116 column (c5),1600 nM
"Nc1nc(NC2CCN(S(=O)(=O)c3cccnc3)CC2)sc1C(=O)c1c(F)cccc1F [Example F23, 1-{4-Amino-2-[1-(pyridine-3-sulfonyl)-piperidin-4-ylamino]-thiazol-5-yl}-1-(2,6-difluoro-phenyl)-methanone]",Ki,[1],2.8 nM
same,Ki,[2],4.8 nM
same,IC50,[3]; first HCT-116 column (c4),130 nM
same,IC50,[3]; second HCT-116 column (c5),300 nM
"Nc1nc(NC2CCN(S(=O)(=O)c3ccc(-c4cccnc4)nc3)CC2)sc1C(=O)c1c(F)cccc1F [Example I6, 1-{4-Amino-2-[1-([2,3′]bipyridinyl-5-sulfonyl)-piperidin-4-ylamino]-thiazol-5-yl}-1-(2,6-difluoro-phenyl)-methanone Hydrochloride]",Ki,[1],0.32 nM
same,Ki,[2],0.37 nM
same,IC50,[3]; first HCT-116 column (c4),37 nM
same,IC50,[3]; second HCT-116 column (c5),110 nM
CCOC(=O)CCCCCNC(=O)N1CCC(Nc2nc(N)c(C(=O)c3c(F)cccc3F)s2)CC1 [Example O70],CDK2 % Inhibition At 0.03 μM,[1]; 0.03 μM compound,28%
same,CDK4 % Inhibition at 0.03 μM,"[2]; 0.03 μM compound, Table 2",7%
same,HCT-116 % Inhibition at 0.25 μM,"[3]; HCT-116, Table 2",52%
Nc1nc(NC2CCN(S(=O)(=O)c3cccc(C(=O)O)c3)CC2)sc1C(=O)c1c(F)cccc1F [Example P29],CDK2 % Inhibition at 0.03 μM,"[1]; 0.03 μM compound, Table 3",35%
same,CDK4 % Inhibition at 0.03 μM,"[2]; 0.03 μM compound, Table 3",56%
same,HCT-116 % Inhibition at 0.1 μM,[3]; [4],0%
same,HCT-116 % Inhibition at 0.25 μM,"[3]; HCT-116, Table 3",21%
COC(=O)c1ccccc1S(=O)(=O)N1CCC(Nc2nc(N)c(C(=O)c3c(F)cccc3F)s2)CC1 [Example P28],CDK2 % Inhibition at 0.03 μM,"[1]; 0.03 μM compound, Table 3",55%
same,CDK4 % Inhibition at 0.03 μM,"[2]; 0.03 μM compound, Table 3",56%
same,HCT-116 % Inhibition at 0.1 μM,[3]; [4],7%
same,HCT-116 % Inhibition at 0.25 μM,"[3]; HCT-116, Table 3",28%
Nc1nc(NC2CCN(C(=O)c3cccc(C(F)(F)F)c3)CC2)sc1C(=O)c1c(F)cccc1F [Example R139],CDK2 % Inhibition at 0.03 μM,[1]; at 0.03 μM,50%
same,CDK4 % Inhibition at 0.03 μM,[2]; at 0.03 μM,75%
same,HCT-116 % Inhibition at 0.1 μM,"[3]; HCT-116 cells, at 0.1 μM",20%
same,HCT-116 5 Inhibition at 0.25 μM,[3]; HCT-116 cells,62
Nc1nc(NC2CCN(C(=O)c3cccs3)CC2)sc1C(=O)c1c(F)cccc1F [Example Q64],CDK2 % Inhibition at 0.03 μM,[1]; [5],45%
same,CDK4 % Inhibition at 0.03 μM,[2]; [5],48%
same,HCT-116 % Inhibition at 0.1 μM,"[3]; 0.1 μM compound, HCT-116, Table 4, 0.1 µM",7%
same,HCT-116 % Inhibition at 0.25 μM,"[3]; HCT-116, Table 4, 0.25 µM",25%
N#Cc1cccc(S(=O)(=O)N2CCC(Nc3nc(N)c(C(=O)c4c(F)cccc4F)s3)CC2)c1 [Example P77],CDK2 % Inhibition at 0.03 μM,"[1]; 0.03 μM compound, Table 3",19%
same,CDK4 % Inhibition at 0.03 μM,"[2]; 0.03 μM compound, Table 3",43%
same,HCT-116 % Inhibition at 0.1 μM,[3]; [4],21%
same,HCT-116 % Inhibition at 0.25 μM,"[3]; HCT-116, Table 3",20%
CC(=O)c1ccc(NC(=O)N2CCC(Nc3nc(N)c(C(=O)c4c(F)cccc4F)s3)CC2)cc1 [Example O53],CDK2 % Inhibition At 0.03 μM,[1]; 0.03 μM compound,30%
same,CDK4 % Inhibition at 0.03 μM,"[2]; 0.03 μM compound, Table 2",11%
same,HCT-116 % Inhibition at 0.25 μM,"[3]; HCT-116, Table 2",41%
CCCCCCOc1ccc(C(=O)N2CCC(Nc3nc(N)c(C(=O)c4c(F)cccc4F)s3)CC2)cc1 [Example Q30],CDK2 % Inhibition at 0.03 μM,[1]; [5],−4%
same,CDK4 % Inhibition at 0.03 μM,[2]; [5],42%
same,HCT-116 % Inhibition at 0.1 μM,"[3]; 0.1 μM compound, HCT-116, Table 4",8%
same,HCT-116 % Inhibition at 0.25 μM,"[3]; HCT-116, Table 4, 0.25 µM",47%
